Assay results from the supplement of paper PMC10627819.

Assays:
[1] = system: S. pneumoniae D39V; assay: fitness (endpoint OD595 vs no drug) (fraction); higher = more growth
Method in brief: (§1)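 At 37 °C, bacteria in TSB, LB Lennox or CY were grown in 384-well plates from a starting OD595 of 0.01. OD595 was measured every 30 min for 14 h, with the first reading used as background. Fitness is the optical density at the switch to stationary phase as a fraction of the robust mean of no-drug control wells, capped at 1.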

[2] = system: B. subtilis 168; assay: as above
Method in brief: as §1

[3] = system: S. aureus DSM 20231; assay: as above
Method in brief: as §1

[4] = system: S. aureus Newman; assay: as above
Method in brief: as §1

[5] = system: S. pneumoniae D39V; assay: Bliss interaction score (quartile over a dose matrix) (fitness difference); higher = more antagonism (negative = synergy)
Method in brief: (§2)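 Fitness is OD595 at stationary-phase entry relative to the plate's robust no-drug mean, capped at 1. Single-drug fitness was inferred from combinations. The Bliss score is observed minus product-expected fitness, summarised by quartiles over technical, biological and donor/recipient replicates.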

[6] = system: B. subtilis 168; assay: as above
Method in brief: as §2

[7] = system: S. aureus DSM 20231; assay: as above
Method in brief: as §2

[8] = system: S. aureus Newman; assay: as above
Method in brief: as §2
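Wherever Bliss interaction score (quartile over a dose matrix) is given: first quartile when negative (synergy) and third quartile when positive (antagonism).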

CCCCCCCCCC(=O)N[C@@H](Cc1c[nH]c2ccccc12)C(=O)N[C@H](CC(N)=O)C(=O)N[C@@H](CC(=O)O)C(=O)N[C@@H]1C(=O)NCC(=O)N[C@@H](CCCN)C(=O)N[C@@H](CC(=O)O)C(=O)N[C@H](C)C(=O)N[C@@H](CC(=O)O)C(=O)NCC(=O)N[C@H](CO)C(=O)N[C@@H]([C@H](C)CC(=O)O)C(=O)N[C@@H](CC(=O)c2ccccc2N)C(=O)O[C@@H]1C [Daptomycin] + C[C@@H]1O[C@@H]1P(=O)(O)O [Fosfomycin]
fitness
Conditions	first compound 0.125 µg/mL	first compound 0.25 µg/mL	first compound 0.5 µg/mL	first compound 1 µg/mL	first compound 2 µg/mL	first compound 4 µg/mL
[1], partner 1.25 µg/mL	–	–	–	0.93	0.919	–
[1], partner 2.5 µg/mL	–	–	–	0.844	0.845	0.767
[1], partner 5 µg/mL	–	–	–	0.624	0.64	0.597
[2], partner 1.562 µg/mL	0.686	0.728	0.771	–	–	–
[2], partner 3.124 µg/mL	0.642	0.645	0.625	–	–	–
[2], partner 6.248 µg/mL	0.492	0.468	0.511	–	–	–
[3], partner 0.781 µg/mL	0.742	0.659	0.818	0.879	0.778	–
[3], partner 1.562 µg/mL	0.589	0.586	0.621	0.609	0.601	–
[3], partner 3.124 µg/mL	0.498	0.496	0.505	0.495	0.508	–
[4], partner 0.781 µg/mL	0.657	0.674	0.703	–	–	–
[4], partner 1.562 µg/mL	0.536	0.534	0.534	–	–	–
[4], partner 3.124 µg/mL	0.233	0.172	0.16	–	–	–

[2], first compound 1 µg/mL, one replicate
Conditions	fitness
partner 1.562 µg/mL	0.7
partner 3.124 µg/mL	0.501
partner 6.248 µg/mL	0.305

Conditions	Bliss interaction score
[5]	0.0735
[6]	0.063
[7]	-0.0509
[8]	0.0452

CCCCCCCCCC(=O)N[C@@H](Cc1c[nH]c2ccccc12)C(=O)N[C@H](CC(N)=O)C(=O)N[C@@H](CC(=O)O)C(=O)N[C@@H]1C(=O)NCC(=O)N[C@@H](CCCN)C(=O)N[C@@H](CC(=O)O)C(=O)N[C@H](C)C(=O)N[C@@H](CC(=O)O)C(=O)NCC(=O)N[C@H](CO)C(=O)N[C@@H]([C@H](C)CC(=O)O)C(=O)N[C@@H](CC(=O)c2ccccc2N)C(=O)O[C@@H]1C [Daptomycin] + C[n+]1ccc(-c2cc[n+](C)cc2)cc1 [Paraquat]
fitness
Conditions	first compound 0.125 µg/mL	first compound 0.25 µg/mL	first compound 0.5 µg/mL	first compound 1 µg/mL	first compound 2 µg/mL	first compound 4 µg/mL
[1], partner 1.5 µg/mL	–	–	–	0.996	0.987	0.936
[1], partner 3 µg/mL	–	–	–	0.973	0.955	0.937
[1], partner 6 µg/mL	–	–	–	0.974	0.922	0.872
[2], partner 1.25 µg/mL	0.901	0.93	0.85	–	–	–
[2], partner 2.5 µg/mL	0.9	0.901	0.902	–	–	–
[2], partner 5 µg/mL	0.894	0.857	0.81	–	–	–
[3], partner 1.25 µg/mL	0.906	0.9	0.942	0.932	0.883	–
[3], partner 2.5 µg/mL	0.898	0.923	0.991	0.968	0.995	–
[3], partner 5 µg/mL	0.93	0.927	0.924	1	0.907	–
[4], partner 1.25 µg/mL	≥ 1	≥ 1	0.995	–	–	–
[4], partner 2.5 µg/mL	≥ 1	≥ 1	0.977	–	–	–
[4], partner 5 µg/mL	0.974	0.945	0.9	–	–	–

[2], first compound 1 µg/mL, one replicate
Conditions	fitness
partner 1.25 µg/mL	0.743
partner 2.5 µg/mL	0.722
partner 5 µg/mL	0.653

Conditions	Bliss interaction score
[5]	0.0711
[6]	0.0589
[7]	-0.0451
[8]	0.0526

CCCCCCCCCC(=O)N[C@@H](Cc1c[nH]c2ccccc12)C(=O)N[C@H](CC(N)=O)C(=O)N[C@@H](CC(=O)O)C(=O)N[C@@H]1C(=O)NCC(=O)N[C@@H](CCCN)C(=O)N[C@@H](CC(=O)O)C(=O)N[C@H](C)C(=O)N[C@@H](CC(=O)O)C(=O)NCC(=O)N[C@H](CO)C(=O)N[C@@H]([C@H](C)CC(=O)O)C(=O)N[C@@H](CC(=O)c2ccccc2N)C(=O)O[C@@H]1C [Daptomycin] + Cc1cc(NS(=O)(=O)c2ccc(N)cc2)no1 [Sulfamethoxazol]
fitness
Conditions	partner 1 µg/mL	partner 2 µg/mL	partner 4 µg/mL
[1], first compound 1 µg/mL	0.932	0.95	0.964
[1], first compound 2 µg/mL	0.924	0.901	0.935
[1], first compound 4 µg/mL	0.916	0.938	0.938
[2], first compound 0.125 µg/mL	0.893	0.821	0.938
[2], first compound 0.25 µg/mL	0.895	0.885	0.856
[2], first compound 0.5 µg/mL	0.928	0.814	–
[3], first compound 0.5 µg/mL	0.914	≥ 1	≥ 1
[3], first compound 1 µg/mL	0.918	0.988	0.976
[3], first compound 2 µg/mL	0.913	0.988	0.963
[4], first compound 0.125 µg/mL	0.967	0.99	≥ 1
[4], first compound 0.25 µg/mL	0.967	0.977	≥ 1
[4], first compound 0.5 µg/mL	0.992	0.971	≥ 1

one replicate
Conditions	fitness
[2], first compound 0.125 µg/mL, partner 0.5 µg/mL	0.919
[2], first compound 0.25 µg/mL, partner 0.5 µg/mL	0.908
[2], first compound 0.5 µg/mL, partner 0.5 µg/mL	0.969
[2], first compound 1 µg/mL, partner 1 µg/mL	0.719
[2], first compound 1 µg/mL, partner 2 µg/mL	0.72
[2], first compound 1 µg/mL, partner 4 µg/mL	0.645
[3], first compound 0.125 µg/mL, partner 1 µg/mL	0.926
[3], first compound 0.125 µg/mL, partner 2 µg/mL	≥ 1
[3], first compound 0.125 µg/mL, partner 4 µg/mL	≥ 1
[3], first compound 0.25 µg/mL, partner 1 µg/mL	0.951
[3], first compound 0.25 µg/mL, partner 2 µg/mL	≥ 1
[3], first compound 0.25 µg/mL, partner 4 µg/mL	0.974
[4], first compound 0.5 µg/mL, partner 8 µg/mL	0.954
[4], first compound 1 µg/mL, partner 2 µg/mL	≥ 1
[4], first compound 1 µg/mL, partner 4 µg/mL	0.986
[4], first compound 1 µg/mL, partner 8 µg/mL	0.973
[4], first compound 2 µg/mL, partner 2 µg/mL	0.994
[4], first compound 2 µg/mL, partner 4 µg/mL	≥ 1
[4], first compound 2 µg/mL, partner 8 µg/mL	0.983

Conditions	Bliss interaction score
[5]	0.0745
[6]	-0.0776
[7]	0.041
[8]	0.0337
